Reference: patent US20190192060A1, “DEVICE AND METHOD FOR BLOOD VOLUME MEASUREMENT” (Oregon Health & Science University, priority 2017, published 2019)

How the values were obtained:
[1] = in vivo indicator dilution and elimination measured with intravenous optical fiber probe; details: healthy adult rhesus macaques, intravenous injection, reflectance in cephalic vein
[2] = cited from earlier work
[3] = cited from earlier work; remark: listed apart in the source

- time until blood volume indicator values returned to baseline (non-detectable) [1]: approximately 10 minutes
SMILES: CC1(C)C(/C=C/C=C/C=C/C=C2\N(CCCCS(=O)(=O)O)c3ccc4ccccc4c3C2(C)C)=[N+](CCCCS(=O)(=O)[O-])c2ccc3ccccc3c21 [ICG, indocyanine green]
- placental transfer ([2]; in vivo): does not cross the placenta
- harm to the fetus ([2]; used in many pregnant women): without any reports of harm to the fetus
- time to elimination by the liver ([3]; after mixing in the circulating compartment): ≤ 15 min
- route of excretion ([3]; in vivo): excreted unchanged in the bile
